Data reported in patent US6492330B1, “Antiangiogenic drugs” (National Institute of Immunology, priority 1996, dated 2002).
Non-standard residues stand in square brackets, D forms with d. No end group written: not given here. dPhe(4-Cl) = N[C@H](Cc1ccc(Cl)cc1)C(=O)O; Aib = CC(C)(N)C(=O)O

Tests used:
Assay type in all cases: cell-based
[1] = test system: ECV.304 cells; assay: MTT assay, inhibition of proliferation of endothelial cells ECV.304; settings: for Percent Inhibition Proliferation: 72 hours (Table 1); for PERCENT INHIBITION OF PROLIFERATION: 72 hours (Table 2)
Experimental: (§1) 150 μl of medium was added to the wells of a 96-well tissue culture plate (Nunc, Denmark) followed by 30 μl of cell suspension. The plate was left in incubator (37° C., 5% CO2) overnight. Each of the seven peptides of the combination MuJ-7 were added at three molar concentrations of 10^−7M, 10^−8M and 10^−9M. 20 μl of MuJ-7 at three concentrations of N/10, N and 10N was added to marked wells of the 96-well plate. The value of N for each of the individual peptides was 10^−8M for VIP2, BOM1, SP1, VIP3, and SOM2 and 10^−7M for VIP1, and 10^−9M for SOM1. Each concentration was plated in triplicate. 20 μl of medium alone was added to control wells while wells without cells served as blanks. A total volume of 200 μl was ensured in each well and the plate was left in an incubator (37° C., 5% CO2). After 72 hours of incubation an MTT assay was performed and percentage inhibition in proliferation of treated cells was calculated with respect to control cells.
150 μl of medium was added to the wells of a 96-well tissue culture plate (Nunc, Denmark) followed by 30 μl of cell suspension. The plate was left in incubator (37° C., 5% CO2) overnight. Novel peptides shown below were incubated with cells at concentration range of 10^−7 to 10^−9 M (except DT71 at concentration range 10^−8 to 10^−10 M). Each concentration was plated in triplicates. 20 μl of medium alone was added to control wells while wells without cells served as blanks. A total volume of 200 μl was ensured in each well and plate was left in incubator (37° C., 5% CO2). After 72 hours of incubation an MTT assay was performed and percentage inhibition in proliferation of treated cells was calculated with respect to control cells.

[2] = test system: endothelial cells ECV.304; assay: Migration assay across 8 μm polycarbonate filter transwell inserts; settings: for Percent inhibition in migration: N = 10^−8 M for VIP2, BOM1, SP1, VIP3, SOM2, 10^−7M for VIP1, 10^−9M for SOM1, 24 hours; for PERCENT INHIBITION MIGRATION: analog at optimum concentration −8M, 24 hours (Table 4)
Experimental: Polycarbonate filter transwell inserts (24 well size) with 8 μm pores (Nunc, Denmark) were used for the migration assay. ECV304 (10^4 cells/200 ul DMEM containing 0.1% BSA) was added to the upper chamber. The lower chamber contained 600 ul of DMEM with 0.1% BSA. Individual peptides of the composition MuJ-7 at six different concentrations each of N/100, N/10, N, 10N, 100N and 1000N were added directly to the upper well and the plate incubated at 37° C. for 24 hours. The cells migrated to the lower chamber were viewed randomly at five different phase-contrast microscopic fields and the total number of cells counted using Video Pro 32 Image Analysis system. Percent inhibition in migration was determined with reference to the Control. Similarly, […] different concentrations of N/100, N/10, N, 10N, 100N and 1000N of MuJ-7 were added directly to the upper well and the plate incubated at 37° C. for 24 hours. The cells migrated to the lower chamber were counted as described above.
Polycarbonate filter trasnwell inserts (24 well size) with 8 μm pores (Nuno, Denmark) were used for the migration assay. ECV304 (10^4 cells/200 ul DMEM containing 0.1% BSA) was added to the upper chamber. The lower chamber contained 600 ul of DMEM with 0.1% BSA. […] The sequence of each of the peptides added are described above. The cells migrated to the lower chamber were viewed randomly at five different phase-contrast microscopic fields and the total number of cells counted using Video Pro 32 Image Analysis system. Percent inhibition in migration was determined with reference to Control. […]

[3] = test system: EaHy.926; assay: MTT assay, inhibition of proliferation of endothelial cells EaHy.926; settings: 72 hours
Experimental: as §1

[4] = test system: ECV304; assay: Tube-like-structure (TLS) formation on Matrigel; settings: 24 hours; for Percent inhibition in TLS activity (TLS length): N = 10^−8 M for VIP2, BOM1, SP1, VIP3, SOM2, 10^−7M for VIP1, 10^−9M for SOM1; for INHIBITION OF TUBE LENGTH: peptide −8M
Experimental: Matrigel (350 ul) was placed into each well of a 24-well culture plate at 4° C. and was allowed to polymerize by incubation at 37° C. for 30 min. ECV304 (1.5×10^4) were seeded on the Matrigel in 500 ul DMEM supplemented with 10% FBS. MuJ-7 at four different concentrations of 0.25×, 0.5×, ×, & 5.0× were added and. the plate incubated at 37° C. for 24 hour. “×” denotes normal concentration of MuJ-7 where molar concentration of individual peptides was 10^−8 M for VIP2, BOM1, SP1, VIP3 and SOM2 and 10^−7 M for VIP1 and 10^−9 M for SOM1. […] Percent inhibition in tube area was determined with reference to untreated cells.
Matrigel (350 ul) was placed into each well of a 24-well culture plate at 4° C. and was allowed to polymerize by incubation at 37° C. for 30 min. ECV304 (1.5×10^4) were seeded on the Matrigel in 500 ul DMEM supplemented with 10% FBS. […] Percent inhibition in tube length was determined with reference to untreated cells.
Matrigel (350 ul) was placed into each well of a 24-well culture plate at 4° C. and was allowed to polymerize by incubation at 37° C. for 30 min. ECV304 (1.5×10^4) were seeded on the Matrigel in 500 ul DMEM supplemented with 10% FBS. Individual peptides of the composition MuJ-7 at three different concentrations each of N/10, N, and 10N were added and the plate incubated at 37° C. for 24 hours. […] Percent inhibition in tube length was determined with reference to Control. Similarly, three different concentrations of N/10, N, and 10N of MuJ-7 were added to the well and the plate incubated at 37° C. for 24 hours. Percent inhibition in tube length was determined with reference to Control as described previously (Table 10).

Substance	Percent Inhibition Proliferation ([1]; ECV.304, peptide 10^−7M) [%]	Percent Inhibition Proliferation ([1]; ECV.304, peptide 10^−8M) [%]	Percent Inhibition Proliferation ([1]; ECV.304, peptide 10^−9M) [%]	Percent inhibition in migration ([2]; 10N) [%]	Percent inhibition in migration ([2]; 100N) [%]	Percent inhibition in migration ([2]; 1000N) [%]	Percent inhibition in migration ([2]; N/10) [%]	Percent inhibition in migration ([2]; N/100) [%]	Percent inhibition in migration ([2]; N) [%]	Percent Inhibition Proliferation ([3]; EaHy.926, peptide 10^−7M) [%]	Percent Inhibition Proliferation ([3]; EaHy.926, peptide 10^−8M) [%]	Percent Inhibition Proliferation ([3]; EaHy.926, peptide 10^−9M) [%]	Percent inhibition in TLS activity (TLS length) ([4]; 10N) [%]	Percent inhibition in TLS activity (TLS length) ([4]; N/10) [%]	Percent inhibition in TLS activity (TLS length) ([4]; N) [%]	PERCENT INHIBITION OF PROLIFERATION ([1]; ECV304, 10^−7M) [%]	PERCENT INHIBITION OF PROLIFERATION ([1]; ECV304, 10^−8M) [%]	PERCENT INHIBITION OF PROLIFERATION ([1]; ECV304, 10^−9M) [%]	PERCENT INHIBITION MIGRATION [2] [%]	INHIBITION OF TUBE LENGTH [4] [%]
D-Phe-Cys-Tyr-D-Trp-Om-Thr-Pen-Thr-NH2 [SOM1]	20	20	19	88.75	73.73	25.00	78.50	84.27	88.11	36	36	22	–	–	–	–	–	–	–	–
His-Ser-Asp-Ala-Val-4-Cl-D-Phe-Thr-Asp-Asn-Tyr-Thr-Arg-Leu-Arg-Lys-Gln-Leu-Ala-Val-Lys-Lys-Tyr-Leu-Asn-Ser-Ile-Leu-Asn-NH2 (HSDAV[dPhe(4-Cl)]TDNYTRLRKQLAVKKYLNSILN-NH2; N-terminus assumed; SMILES CC[C@H](C)[C@H](NC(=O)[C@H](CO)NC(=O)[C@H](CC(N)=O)NC(=O)[C@H](CC(C)C)NC(=O)[C@H](Cc1ccc(O)cc1)NC(=O)[C@H](CCCCN)NC(=O)[C@H](CCCCN)NC(=O)[C@@H](NC(=O)[C@H](C)NC(=O)[C@H](CC(C)C)NC(=O)[C@H](CCC(N)=O)NC(=O)[C@H](CCCCN)NC(=O)[C@H](CCCNC(=N)N)NC(=O)[C@H](CC(C)C)NC(=O)[C@H](CCCNC(=N)N)NC(=O)[C@@H](NC(=O)[C@H](Cc1ccc(O)cc1)NC(=O)[C@H](CC(N)=O)NC(=O)[C@H](CC(=O)O)NC(=O)[C@@H](NC(=O)[C@@H](Cc1ccc(Cl)cc1)NC(=O)[C@@H](NC(=O)[C@H](C)NC(=O)[C@H](CC(=O)O)NC(=O)[C@H](CO)NC(=O)[C@@H](N)Cc1c[nH]cn1)C(C)C)[C@@H](C)O)[C@@H](C)O)C(C)C)C(=O)N[C@@H](CC(C)C)C(=O)N[C@@H](CC(N)=O)C(N)=O) [VIP3]	21	25	22	23.90	11.62	0.00	32.80	0.00	92.45	21	9	24	–	–	–	–	–	–	–	–
KPRRPYTDNYTRLRKQMAVKKYLNSILN-NH2 [VIP1]	15	17	16	62.60	66.52	0.00	52.60	37.53	69.40	25	24	23	–	–	–	–	–	–	–	–
LMYPTYLK [VIP2]	24	25	22	88.15	92.90	0.00	91.75	0.00	89.05	32	28	42	3.3	0.0	1.0	–	–	–	–	–
Leu-Met-Tyr-Pro-Thr-Tyr-D-Leu-Lys-OH (LMYPTY[dL]K-OH; N-terminus assumed; SMILES CSCC[C@H](NC(=O)[C@@H](N)CC(C)C)C(=O)N[C@@H](Cc1ccc(O)cc1)C(=O)N1CCC[C@H]1C(=O)N[C@H](C(=O)N[C@@H](Cc1ccc(O)cc1)C(=O)N[C@H](CC(C)C)C(=O)N[C@@H](CCCCN)C(=O)O)[C@@H](C)O) [DT-14]	–	–	–	–	–	–	–	–	–	–	–	–	–	–	–	17.0	6.0	20.5	77.3	24.3
[dF]QWAV[Aib]HI-NH2 [DT-27]	–	–	–	–	–	–	–	–	–	–	–	–	–	–	–	14.3	11.9	6.7	0	29.7
[dF]QWAV[Aib]HL-NH2 [DT-24]	–	–	–	–	–	–	–	–	–	–	–	–	–	–	–	6.4	9.8	10.7	0	16.2
[dL]MQWF[Aib]-NH2 [DT-33]	–	–	–	–	–	–	–	–	–	–	–	–	–	–	–	8.7	15.8	13.9	41.4	13.5
[dR]PKP[Aib]Q[dW]F[dW][Aib]L-NH2 [DT-34]	–	–	–	–	–	–	–	–	–	–	–	–	–	–	–	12.1	15.6	14.3	53.6	0
